This assay deals with T1, human α4β2 subtype of nicotinic acetylcholine receptors (Homo sapiens, UniProt P17787+P43681).
T1 construct: expressed in transfected cells; host or cells: Xenopus laevis oocytes injected with hnACh-R α4 and β2 cRNA (pSP64 polyA vector)
T1 sequence (P43681 29-627 limits assumed): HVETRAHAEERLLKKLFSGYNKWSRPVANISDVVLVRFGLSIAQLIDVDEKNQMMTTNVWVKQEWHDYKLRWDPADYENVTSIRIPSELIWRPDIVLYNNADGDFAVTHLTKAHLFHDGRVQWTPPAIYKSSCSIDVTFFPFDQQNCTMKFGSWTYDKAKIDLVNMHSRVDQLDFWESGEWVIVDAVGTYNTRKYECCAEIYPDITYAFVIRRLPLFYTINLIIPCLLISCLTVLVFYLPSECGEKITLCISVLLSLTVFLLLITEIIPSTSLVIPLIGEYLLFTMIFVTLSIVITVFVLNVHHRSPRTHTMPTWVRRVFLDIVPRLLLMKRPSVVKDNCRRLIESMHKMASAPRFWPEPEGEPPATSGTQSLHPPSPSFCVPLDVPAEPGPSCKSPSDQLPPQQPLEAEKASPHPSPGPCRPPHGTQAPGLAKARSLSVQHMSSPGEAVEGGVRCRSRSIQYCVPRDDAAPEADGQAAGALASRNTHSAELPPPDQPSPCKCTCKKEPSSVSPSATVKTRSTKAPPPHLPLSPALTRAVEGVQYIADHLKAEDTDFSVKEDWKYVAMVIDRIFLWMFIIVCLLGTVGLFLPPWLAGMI
T1 sequence (P17787 26-502): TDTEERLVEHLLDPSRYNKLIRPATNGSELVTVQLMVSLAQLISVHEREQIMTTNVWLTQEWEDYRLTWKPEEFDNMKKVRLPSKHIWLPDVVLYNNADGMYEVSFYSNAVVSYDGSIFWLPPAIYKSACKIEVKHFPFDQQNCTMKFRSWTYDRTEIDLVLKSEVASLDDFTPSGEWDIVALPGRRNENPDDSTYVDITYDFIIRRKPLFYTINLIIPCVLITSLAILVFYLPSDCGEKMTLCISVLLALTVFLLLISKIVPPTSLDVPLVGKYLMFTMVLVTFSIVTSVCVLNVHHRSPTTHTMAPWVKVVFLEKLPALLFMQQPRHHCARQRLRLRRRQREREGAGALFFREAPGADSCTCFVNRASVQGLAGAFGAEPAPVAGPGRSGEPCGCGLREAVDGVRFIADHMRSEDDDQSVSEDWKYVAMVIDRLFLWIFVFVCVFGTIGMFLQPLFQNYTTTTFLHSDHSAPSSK
The class given is cell-based. The note with it: response at 100 μM test compound, in comparison with response at 10 μM acetylcholine (100%); oocytes held at −50 mV. As for the experimental part:
The agonist effect in human α4β2 subtype of nicotinic acetylcholine receptors are examined by using human nicotinic acetylcholine receptors prepared in oocytes of Xenopus laevis, which is injected with cRNA from the corresponding cloning cDNA of human α4 and β2 subunits of nicotinic acetylcholine receptors, and to measure the expression of the electric response by adding the test compounds to perfusion solution by means of membrane potential holding method.
Agonist Activities at Human α4β2 Subtype of Nicotinic Acetylcholine Receptors
The agonist activities of the compounds of the present invention at human α4β2 subtype of nicotinic acetylcholine receptors was evaluated by the following method, which was modified method described by Papke R. L., Thinschmidt J. S., Moulton B. A., Meyer E. M. & Poirier A., Br. J. Pharmacol., 120, 429-438 (1997).
(1) Preparation of cRNA of Human α4β2 Subtype of Nicotinic Acetylcholine Receptors
The cloning of human nicotinic acetylcholine receptor (hnACh-R) α4 cDNA and hnAC-R β2 cDNA were performed, in accordance with the conventional manners, by synthesizing the each DNA primers corresponding to the sequences of hnACh-R α4 cDNA and hnACh-R β2 cDNA [Monteggia L. M. et al., Gene, 155, 189-193 (1995); and Anand R., & Lindstrom J., Nucl. Acids Res., 18, 4272 (1990)], and obtained hnACh-R α4 cDNA and hnACh-R β2 cDNA by polymerase chain reaction (PCR), respectively. The obtained hnACh-R α4 cDNA and hnACh-R β2 cDNA were inserted to the cRNA expression vector (pSP64 polyA) having SP6 RNA promoter to construct hnACh-R α4/pSP64 polyA and hnACh-R β2/pSP64 polyA, respectively. After cutting from expression vector by restriction enzyme (EcoRI), transcription was performed by affecting SP6 RNA polymerase in the presence of cap analogues to obtain hnACh-R α4 cRNA and hnACh-R β2 cRNA, respectively.
(2) Expression of Human α4β2 Subtype Nicotinic Acetylcholine Receptors in Xenopus Oocytes
Oocytes were purchased from Kitanihonseibustukyohzai Co., Ltd., which were already enucleated from Xenopus laevis, and used in this experiment.
The oocytes were treated with collagenase (Sigma type I; 1 mg/ml) in calcium-free modified Birth's solution (88 mM of NaCl, 1 mM of KCl, 2.4 mM of NaHCO3, 0.82 mM of MgSO4, 15 mM of HEPES, pH 7.6) under gently stirring at the room temperature for 90 minutes, and washed out the enzyme from the tissue. Then, oocytes were separated from ovarian follicle by tweezers, and isolated oocytes were placed in antibiotics containing modified Birth's solution (88 mM of NaCl, 1 mM of KCl, 2.4 mM of NaHCO3, 0.82 mM of MgSO4, 15 mM of HEPES, pH 7.6, and 0.1 v/v % of mixture solution containing of penicillin and streptomycin for incubation; Sigma Co.). Thus treated oocytes were injected with 50 nl of adjusted cRNAs (1.0 mg/ml), that is, each 50 ng of hnACh-R α4 cRNA and hnACh-R β2 cRNA per 1 oocyte by using automatic injector (NANOJECT; DRUMMOND […] CO.), and further incubated for 4-14 days at 19° C. In oocytes, heterogeneous quintuple [(α4)2(β2)3] was composed by translation of injected cRNAs, and ion channel receptors were constructed on cell membrane.
(3) Agonist Activities at Human α4β2 Subtype of Nicotinic Acetylcholine Receptors
The recordings of responses at human α4β2 subtype of nicotinic acetylcholine receptors by means of membrane potential holding method were performed as follow. […] Test compounds were added to the perfusion solution, and recorded the peak strength of induced inward electric current. […]
On to `Clc1ccc(C/N=C2\SCCN2Cc2ccc(Cl)nc2)cn1` [Compound 1, 3-(6-chloro-3-pyridyl)methyl-2-[(6-chloro-3-pyridyl)methyl]iminothiazolidine], for which the Agonist effect turned out to be 6%.

With `Clc1ccc(C/N=C2\OCCCN2Cc2ccc(Cl)nc2)cn1` [Compound 2, 3-(6-chloro-3-pyridyl)methyl-2-[(6-chloro-3-pyridyl)-methyl]imino-3,4,5,6-tetrahydro-2H-1,3-oxazine], the Agonist effect amounted to 27%.

Take `Clc1ccc(C/N=c2\sccn2Cc2ccc(Cl)nc2)cn1` [Compound 8, 3-(6-chloro-3-pyridyl)methyl-2-[(6-chloro-3-pyridyl)methyl]imino-2,3-dihydrothiazole]: the Agonist effect stood at 11%.

Consider `Cn1ccn(Cc2ccc(Cl)nc2)c1=N` [Compound 13, 1-(6-chloro-3-pyridyl)methyl-2-imino-3-methyl-2,3-dihydroimidazole], for which the Agonist effect was found to be 5%.

The values are drawn from patent US6900202B2, “Di-substituted imineheterocyclic compounds” (priority 2000, dated 2005).
